Patent publication US11040106B2, “Conjugates of kinase inhibitors and cyanine dyes” (priority 2018, dated 2021)
Entries after “also recorded” stand apart in the source; their conditions may differ. Read-outs that look alike come from different tables or passages of the source.

Key:
[1] = biological target: T1, HSA (Homo sapiens, UniProt P02768); assay: Covalent binding / reaction of cyanines with HSA (LC/MS, ESI MS, NIR-fluorescent gel); conditions: HEPES buffer pH 7.4, 37° C.
Procedure: FIGS. 33A to 33D show kinetics of a, 1, c, 4, d, 5; e, 6 in 1 M HEPES buffer pH 7.4. […] The kinetics was examined on C, 18 column using Agilent 1200 series LC/MS at 600 nm.
FIGS. 34A and 34B show mass spectra of a, free HSA and b, 1 bound to HSA. HSA: 1 (2.5:1); buffer 1 M HEPES.
In a control experiment, human serum albumin (HSA) was reacted with 2.5 equivalents of 1-Cl at 37° C. in 1 M HEPES buffer. This 1-Cl:albumin molar ratio was selected because it is approximately that used in cell culture experiments to probe uptake of this dye.
To test this assertion the experimental design was modified in the following way.

[2] = system: U87-MG glioblastoma cells; assay: Organelle localization of the fluors (confocal imaging); type: cell-based, human; conditions: 37° C., DMEM/F12 with 10% FBS pH 7.4; for localization after time (h) 0.5: 0.5 h; for localization after time (h) 24: 24 h
[3] = system: U87-MG cells; assay: Cytotoxicity (cell viability) on U87-MG cells; type: cell-based; conditions: for cytotoxicity compared with parent dye, parent kinase inhibitor (and their mixture): U87-MG cells (glioblastoma)
[4] = system: MDA-MB-231 “triple negative” breast cancer cells; assay: Cytotoxicity (cell viability) on MDA-MB-231 cells; type: cell-based; conditions: MDA-MB-231 (breast cancer cells)
[5] = Photophysical properties; type: physicochemical
[6] = Photostability under LED irradiation at 780 nm; type: physicochemical; conditions: PBS pH 7.4, LED 780 nm
Procedure: Initially, equimolar concentrations (20 μM) were used; QCy was reproducibly and more robust than the other two, but the difference was more than anticipated so the experimental design was suspected.

[7] = Solubility in water; type: physicochemical
Procedure: 1-NMe2 is water soluble up until 1000 μM whereas 1-CH2 precipitates at 100 μM.

[8] = Aggregation: concentration dependence of absorbance spectra; type: physicochemical; conditions: 1.25-20 μM, 10 mM pH 7.4 PBS
Procedure: FIGS. 37A and 37B show concentration dependence of absorbance spectra in the range 1.25-20 μM in 10 mM pH 7.4 PBS buffer a, (B) MHI-148 and b, (1) QCy.
Shoulders of that kind and indicative of H-aggregates, ie associative oligomers in which the transition moments of the monomers are not well aligned leading to […] (blue) shifts. Concentration dependences of absorbance spectra of QCy and MHI-148 (structurally the closest) were determined to explore H-aggregation further.

[9] = system: U87-MG cells; assay: Cytotoxicity of ICG, MHI-148 and QCy, 72 h in the dark, AlamarBlue; type: cell-based, human
Excerpt: Cytotoxicity of QCy was studied using U87-MG cells (a glioblastoma multiforme line).

[10] = system: U87-MG (Glioblastoma) cells as compared to HUVEC (normal cells); assay: Uptake by U87-MG cells as compared to HUVEC; type: cell-based, human
[11] = system: HEPG2 cells; assay: 1a in HEPG2 cells: morphology change and co-localization in organelles; type: cell-based
Excerpt: FIG. 5A visualizes some of the data from FIGS. 4A and 4B (that on HEPG2 cells).
Localization of compounds in mitochondria tends to give more pronounced cytotoxicity effects than accumulation in most organelles.

[12] = system: HEPG2 cells; assay: Cytotoxicity (cell viability, MTT assay) on HEPG2 cells; type: cell-based; conditions: HEPG2 cells (liver cancer)
Procedure: Approximately 5000 HEPG2 cells/well were seeded on 96 well plate containing 10% fetal bovine serum. Cells were allowed to adhere overnight before test compounds were added. Stock solutions of 1a (0.02 M in DMSO) were diluted with protein-free medium (PFHM-II) to make desired final concentrations varying from 0.01 to 80 μM. The cells were incubated with the desired concentration for 48 h. The cell viabilities were calculated using MTT assay. Briefly, 20 μL of 3-(4,5-dimethylthiazol-2-yl)-2,5-diphenyltetrazolium bromide MTT (5 mg/mL, in Hank's balanced salt solution) were added and the cells were incubated for an additional 3.5 h. The medium was then removed, and […] of DMSO was added to dissolve the formazan crystal formed. The optical density of each well (at 570 nm) was measured with a BioTek Synergy 4 Microplate Reader. The viability of each cell line in response to the treatment with tested compounds was calculated as: % dead cells=100−(OD treated/OD control)×100.

[13] = system: U87-MG cells; assay: Uptake and colocalization of 1-Cl and 1-HSA (confocal); type: cell-based, human
Procedure: Colocalization with trackers for mitochondria, lysosome, ER and Golgi are featured. Images were taken using Zeiss confocal microscope at 60×/1.2 water immerse objective after 30 mins of incubation.
FIG. 43 are data from a set of experiments nearly identical to those in FIG. […]
Data in FIG. 42 should be compared with literature reports describing import of 1-Cl but in media containing albumin into various cells.

[14] = biological target: T1, HSA; assay: Covalent binding / reaction of cyanines with HSA (LC/MS, ESI MS, NIR-fluorescent gel)

T1 sequence (P02768 25-609): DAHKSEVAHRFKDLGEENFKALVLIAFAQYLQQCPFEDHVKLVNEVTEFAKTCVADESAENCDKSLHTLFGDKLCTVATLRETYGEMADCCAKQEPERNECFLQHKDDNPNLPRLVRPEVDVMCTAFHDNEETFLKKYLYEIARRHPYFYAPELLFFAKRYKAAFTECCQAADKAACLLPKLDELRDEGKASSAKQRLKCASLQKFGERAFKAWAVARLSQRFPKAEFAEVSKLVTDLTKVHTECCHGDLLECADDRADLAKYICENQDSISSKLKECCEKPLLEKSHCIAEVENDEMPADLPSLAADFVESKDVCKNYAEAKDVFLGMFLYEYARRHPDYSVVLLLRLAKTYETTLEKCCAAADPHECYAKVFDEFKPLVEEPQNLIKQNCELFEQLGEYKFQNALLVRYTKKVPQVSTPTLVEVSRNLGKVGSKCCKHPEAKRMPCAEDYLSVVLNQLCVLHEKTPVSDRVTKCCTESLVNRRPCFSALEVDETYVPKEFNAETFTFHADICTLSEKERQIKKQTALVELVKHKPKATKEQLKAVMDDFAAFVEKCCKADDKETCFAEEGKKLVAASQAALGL

Compound: CC1=C(/C=C/C2=[N+](CCCCCC(=O)[O-])c3ccccc3C2(C)C)CCC/C1=C\C=C1\N(CCCCCC(=O)O)c2ccccc2C1(C)C [Compound 5]
- covalent binding / reaction with HSA [1]: did not bind
- covalent binding / reaction with HSA ([1]; listed as 1-Me): do not react with HSA

Compound: Indocyanine green [ICG]
- localization after time (h) 0.5 [2]: golgi and ER
- localization after time (h) 24 [2]: golgi and lysosome

Compound: CC(=O)c1c(C)c2cnc(Nc3ccc(N4CCN(C(=O)CCCCCN5C(=CC=C6CCCC(C=CC7=[N+](CCCCS(=O)(=O)[O-])c8ccccc8C7(C)C)=C6Cl)C(C)(C)c6ccccc65)CC4)cn3)nc2n(C2CCCC2)c1=O [Compound 3b]
- cytotoxicity compared with parent dye, parent kinase inhibitor (and their mixture) [3]: more toxic than b or 3

Compound: CC(Oc1cc(-c2cnn(C3CCN(C(=O)CCCCCN4C(=CC=C5CCCC(C=CC6=[N+](CCCCCC(=O)[O-])c7ccccc7C6(C)C)=C5Cl)C(C)(C)c5ccccc54)CC3)c2)cnc1N)c1c(Cl)ccc(F)c1Cl (stereo not shown) [Compound 1d]
- cytotoxicity compared with parent dye, parent kinase inhibitor (and their mixture) [4]: more found to be toxic than individual 1, d or a combination of 1+d; also recorded: significantly more toxic than the parent dye, the parent kinase inhibitor, or a mixture of the dye and kinase inhibitor

Compound: CC1(C)C(/C=C/C2=CC(=C/C=C3/N(CCCCCC(=O)O)c4ccccc4C3(C)C)/CCC2)=[N+](CCCCCC(=O)[O-])c2ccccc21 [Compound 4]
- covalent binding / reaction with HSA [1]: did not bind
- covalent binding / reaction with HSA ([1]; listed as 1-H): do not react with HSA

Compound: CC1(C)C(=CC=C2C[N+](C)(C)CC(C=CC3=[N+](CCCCCC(=O)O)c4ccccc4C3(C)C)=C2Cl)N(CCCCCC(=O)O)c2ccccc21 [QCy]
- fluorescence quantum yield relative to ICG [5]: about three times greater
- absorbance of equimolar solutions ([5]; 5 μM, 10 mM pH 7.4 PBS): greater absorbance than ICG or MHI-148
- fluorescence brightness of equimolar solutions ([5]; 5 μM, 10 mM pH 7.4 PBS): markedly higher than the other two fluors
- brightness (εmax × Φ) ([5]; 10 mM PBS buffer pH 7.4): 9901
- εmax ([5]; 10 mM PBS buffer pH 7.4): 192460 cm^−1M^−1
- brightness compared with 1-CH2 (in words) ([5]; PBS buffer): brighter dye than 1-CH2
- brightness relative to 1-CH2 ([5]; PBS, pH 7.4): 2 ×
- quantum yield relative to 1-CH2 ([5]; PBS, pH 7.4): 2 ×
- shift of absorbance and fluorescence maxima to shorter wavelengths ([5]; compared with ICG and 1-CH2): ~30 nm
- extinction coefficient compared with 1-CH2 (in words) ([5]; in PBS buffer and in water): stronger extinction coefficient than 1-CH2
- extinction coefficient relative to 1-CH2 ([5]; in water): ~3 ×
- photostability (in words) [6]: almost no decomposition after 1 h continuous illumination; also recorded: the most photostable
- photostability (in words) ([6]; listed as 1-NMe2): more stable than 1-CH2; also recorded: significantly more photostable than 1-CH2 or ICG
- water solubility (in words) [7]: more water soluble than MHI-148
- water soluble up until (concentration) [7]: ≤ 1000 µM
- water solubility (in words) ([7]; listed as 1-NMe2): significantly more soluble in water than 1-CH2
- localization after time (h) 0.5 [2]: golgi
- localization after time (h) 24 [2]: lysosome and ER
- aggregation (H-aggregates) in aqueous media [8]: less prone to aggregation in aqueous media than MHI-148; also recorded: considerably less aggregated than MHI-148
- IC50 [9]: > 80 µM
- cytotoxicity (in words) [9]: not very toxic until 80 μM

Compound: Cc1nc(Nc2ncc(C(=O)Nc3c(C)cccc3Cl)s2)cc(N2CCN(CCOC(=O)CCCCCN3C(=CC=C4CCCC(C=CC5=[N+](CCCCCC(=O)O)c6ccccc6C5(C)C)=C4Cl)C(C)(C)c4ccccc43)CC2)n1 [Compound 1a]
- uptake by U87-MG cells compared to HUVEC [10]: localizes more in U87-MG cells than HUVEC cells
- cytotoxicity compared with parent dye, parent kinase inhibitor (and their mixture) [3]: more found to be toxic than individual 1, a or a combination of 1+a; also recorded: significantly more toxic than the parent dye, the parent kinase inhibitor, or a mixture of the dye and kinase inhibitor
- cytotoxicity compared with ICG-COOH conjugate ([3]; U87-MG, 24 and 48 h): more toxic than ICG-COOH-a
- organelle localization ([11]; HEPG2): localizes preferentially in mitochondria
- influence on cell morphology compared with dasatinib a ([11]; HEPG2, 24 and 48 h): much stronger influence on the cell morphology
- cytotoxicity compared with parent dye, parent kinase inhibitor (and their mixture) [12]: more found to be toxic than individual 1, a or a combination of 1+a; also recorded: significantly more toxic than the parent dye, the parent kinase inhibitor, or a mixture of the dye and kinase inhibitor

Compound: CN(C)C(=O)c1cc2cnc(Nc3ccc(N4CCN(C(=O)CCCCCN5/C(=C/C=C6\CCCC(/C=C/C7=[N+](CCCCCC(=O)[O-])c8ccccc8C7(C)C)=C6Cl)C(C)(C)c6ccccc65)CC4)cn3)nc2n1C1CCCC1 [Compound 1c]
- cytotoxicity compared with parent dye, parent kinase inhibitor (and their mixture) [4]: more found to be toxic than individual 1, c or a combination of 1+c; also recorded: significantly more toxic than the parent dye, the parent kinase inhibitor, or a mixture of the dye and kinase inhibitor

Compound: CC1(C)C(/C=C/C2=C(c3ccccc3)C(=C/C=C3/N(CCCCCC(=O)O)c4ccccc4C3(C)C)/CCC2)=[N+](CCCCCC(=O)[O-])c2ccccc21 [Compound 6]
- covalent binding / reaction with HSA ([1]; listed as 1-Ph): do not react with HSA

Compound: CC1(C)C(/C=C/C2=C(Cl)C(=C/C=C3\N(CCCCCC(=O)O)c4ccccc4C3(C)C)/CCC2)=[N+](CCCCCC(=O)O)c2ccccc21 [Compound 1]
- brightness (εmax × Φ) ([5]; 10 mM PBS buffer pH 7.4): 3689
- Δλ (Stokes' shift) ([5]; 10 mM PBS buffer pH 7.4): 24 nm
- εmax ([5]; 10 mM PBS buffer pH 7.4): 149940 cm^−1M^−1
- λabs ([5]; 10 mM PBS buffer pH 7.4): 775 nm
- λem ([5]; 10 mM PBS buffer pH 7.4): 799 nm
- relative brightness ([5]; 10 mM PBS buffer pH 7.4, relative to ICG): 1.90
- Φ (fluorescence quantum yield) ([5]; 10 mM PBS buffer pH 7.4, standard A (Φ = 0.13 in DMSO)): 0.025
- photostability (in words) [6]: the least stable
- organelle colocalization after uptake ([13]; 20 μM, serum free media, 30 mins, listed as 1-Cl): localized in the mitochondria; also recorded: Most colocalization is seen with the mitochondria
- organelle localization after uptake ([13]; media containing albumin): fluorescence was observed mostly in the mitochondria
- binding to thiol-blocked HSA (TCEP, then 6-maleimide hexanoic acid) ([14]; 15 μM HSA, 15 μM dye): did not bind to 1-Cl
- consumption in reaction with HSA ([14]; 0.5 mM HSA, 0.2 mM 1-Cl, 1 M HEPES pH 7.4, 37° C.): nearly all the 1-Cl is consumed after 72 h
- concentration at which it precipitates [7]: 100 µM
- covalent binding / reaction with HSA [1]: showed an increase in peak with HSA; also recorded: HSA is bound to 1; also recorded: binds to HSA at cysteine 34 position
- covalent binding / reaction with HSA ([1]; listed as 1-Cl): 1:1 covalent adduct and does combine with HSA
- localization after time (h) 0.5 [2]: mitochondria
- localization after time (h) 24 [2]: mitochondria and lysosome
- IC50 [9]: 19.1 ± 1.01 µM
